Measured values as given in PubChem BioAssay (NCI).
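At the GI50, growth is halved. At the TGI there is no net growth.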

Columns and labels:
Test in all cases: inhibition of tumour cell growth, NCI panel, 384-well format
MALME-3M melanoma = system: MALME-3M melanoma
HOP-62 NSCLC = system: HOP-62 NSCLC
NCI-H460 NSCLC = system: NCI-H460 NSCLC
MCF7 breast = system: MCF7 breast
SK-MEL-28 melanoma = system: SK-MEL-28 melanoma
OVCAR-8 ovarian = system: OVCAR-8 ovarian
HT29 colon = system: HT29 colon
MDA-MB-231 breast = system: MDA-MB-231 breast
RPMI-8226 leukemia = system: RPMI-8226 leukemia
DU-145 prostate = system: DU-145 prostate
SF-268 CNS = system: SF-268 CNS
OVCAR-5 ovarian = system: OVCAR-5 ovarian
IGROV1 ovarian = system: IGROV1 ovarian
SK-OV-3 ovarian = system: SK-OV-3 ovarian
CAKI-1 renal = system: CAKI-1 renal
HCT-15 colon = system: HCT-15 colon
SNB-75 CNS = system: SNB-75 CNS
SF-539 CNS = system: SF-539 CNS
RXF 393 renal = system: RXF 393 renal
SR leukemia = system: SR leukemia
A498 renal = system: A498 renal
HS 578T breast = system: HS 578T breast
MOLT-4 leukemia = system: MOLT-4 leukemia
HL-60(TB) leukemia = system: HL-60(TB) leukemia
SW-620 colon = system: SW-620 colon
NCI-H226 lung = system: NCI-H226 lung
NCI-H322M lung = system: NCI-H322M lung
UO-31 renal = system: UO-31 renal
SNB-19 CNS = system: SNB-19 CNS
HCT-116 colon = system: HCT-116 colon
CCRF-CEM leukemia = system: CCRF-CEM leukemia
HOP-92 NSCLC = system: HOP-92 NSCLC
TK-10 renal = system: TK-10 renal
EKVX NSCLC = system: EKVX NSCLC
KM12 colon = system: KM12 colon
K-562 leukemia = system: K-562 leukemia
MDA-MB-435 melanoma = system: MDA-MB-435 melanoma
NCI/ADR-RES ovarian = system: NCI/ADR-RES ovarian
BT-549 breast = system: BT-549 breast
COLO 205 colon = system: COLO 205 colon
OVCAR-4 ovarian = system: OVCAR-4 ovarian
A549 NSCLC = system: A549 NSCLC
SK-MEL-2 melanoma = system: SK-MEL-2 melanoma
U251 glioblastoma = system: U251 glioblastoma
SN12C renal = system: SN12C renal
PC-3 prostate = system: PC-3 prostate
OVCAR-3 ovarian = system: OVCAR-3 ovarian

For `C[C@@H]1Cc2c(ccc3[nH]ncc23)[C@@H](c2ccc(NC3CN(CCCF)C3)cn2)N1CC(F)(F)F`, which GI50 (MALME-3M melanoma) is on record?
The GI50 was 13.8 µM.

And the TGI (MALME-3M melanoma)?
Its TGI is 26.7 µM.

And the GI50 (HOP-62 NSCLC)?
The GI50 was 17.6 µM.

And the TGI (HOP-62 NSCLC)?
Its TGI is 31.4 µM.

What about the GI50 (NCI-H460 NSCLC) of the same compound?
The GI50 was 15.6 µM.

What about the TGI (NCI-H460 NSCLC) of the same compound?
Its TGI is 29.3 µM.

What about the GI50 (MCF7 breast) of the same compound?
The GI50 was less than 0.01 µM.

What about the TGI (MCF7 breast) of the same compound?
The TGI was 13.5 µM.

What about the GI50 (SK-MEL-28 melanoma) of the same compound?
The GI50 was 16.1 µM.

What about the TGI (SK-MEL-28 melanoma) of the same compound?
The TGI was 29.7 µM.

And the GI50 (OVCAR-8 ovarian)?
Its GI50 is 15.4 µM.

And the TGI (OVCAR-8 ovarian)?
Its TGI is 28.9 µM.

And the GI50 (HT29 colon)?
The GI50 was 14.6 µM.

What about the TGI (HT29 colon) of the same compound?
Its TGI is 27.9 µM.

What about the GI50 (MDA-MB-231 breast) of the same compound?
Its GI50 is 14.2 µM.

And the TGI (MDA-MB-231 breast)?
The TGI was 28.7 µM.

And the GI50 (RPMI-8226 leukemia)?
The GI50 was 6.32 µM.

And the TGI (RPMI-8226 leukemia)?
Its TGI is 19.3 µM.

And the GI50 (DU-145 prostate)?
The GI50 was 18.5 µM.

And the TGI (DU-145 prostate)?
Its TGI is 37.7 µM.

What about the GI50 (SF-268 CNS) of the same compound?
Its GI50 is 16.5 µM.

What about the TGI (SF-268 CNS) of the same compound?
The TGI was 30.3 µM.

And the GI50 (OVCAR-5 ovarian)?
The GI50 was 16 µM.

What about the TGI (OVCAR-5 ovarian) of the same compound?
Its TGI is 30.7 µM.

What about the GI50 (IGROV1 ovarian) of the same compound?
Its GI50 is 14.8 µM.

What about the TGI (IGROV1 ovarian) of the same compound?
Its TGI is 30.1 µM.

And the GI50 (SK-OV-3 ovarian)?
The GI50 was 17.5 µM.

What about the TGI (SK-OV-3 ovarian) of the same compound?
The TGI was 31.4 µM.

What about the GI50 (CAKI-1 renal) of the same compound?
Its GI50 is 13.7 µM.

And the TGI (CAKI-1 renal)?
The TGI was 26.7 µM.

And the GI50 (HCT-15 colon)?
Its GI50 is 16.4 µM.

What about the TGI (HCT-15 colon) of the same compound?
Its TGI is 30.3 µM.

And the GI50 (SNB-75 CNS)?
The GI50 was 17.6 µM.

And the TGI (SNB-75 CNS)?
The TGI was 31.4 µM.

What about the GI50 (SF-539 CNS) of the same compound?
Its GI50 is 16.7 µM.

And the TGI (SF-539 CNS)?
The TGI was 30.4 µM.

What about the GI50 (RXF 393 renal) of the same compound?
The GI50 was 4.54 µM.

And the TGI (RXF 393 renal)?
The TGI was 16.1 µM.

And the GI50 (SR leukemia)?
Its GI50 is 2.18 µM.

What about the TGI (SR leukemia) of the same compound?
Its TGI is 4.92 µM.

And the GI50 (A498 renal)?
The GI50 was 12.5 µM.

And the TGI (A498 renal)?
Its TGI is 25 µM.

And the GI50 (HS 578T breast)?
The GI50 was 13 µM.

What about the TGI (HS 578T breast) of the same compound?
Its TGI is 25.7 µM.

What about the GI50 (MOLT-4 leukemia) of the same compound?
Its GI50 is 3.09 µM.

And the TGI (MOLT-4 leukemia)?
Its TGI is 12.8 µM.

What about the GI50 (HL-60(TB) leukemia) of the same compound?
Its GI50 is 13.5 µM.

And the TGI (HL-60(TB) leukemia)?
The TGI was 26.4 µM.

What about the GI50 (SW-620 colon) of the same compound?
The GI50 was 16.6 µM.

And the TGI (SW-620 colon)?
The TGI was 30.4 µM.

What about the GI50 (NCI-H226 lung) of the same compound?
Its GI50 is 17.4 µM.

And the TGI (NCI-H226 lung)?
The TGI was 53.3 µM.

And the GI50 (NCI-H322M lung)?
Its GI50 is 16.4 µM.

What about the TGI (NCI-H322M lung) of the same compound?
The TGI was 30.9 µM.

What about the GI50 (UO-31 renal) of the same compound?
The GI50 was 17.6 µM.

What about the TGI (UO-31 renal) of the same compound?
The TGI was 31.5 µM.

And the GI50 (SNB-19 CNS)?
The GI50 was 23.1 µM.

And the TGI (SNB-19 CNS)?
The TGI was 49.8 µM.

And the GI50 (HCT-116 colon)?
The GI50 was 13.3 µM.

What about the TGI (HCT-116 colon) of the same compound?
Its TGI is 26.2 µM.

And the GI50 (CCRF-CEM leukemia)?
The GI50 was 5.58 µM.

What about the TGI (CCRF-CEM leukemia) of the same compound?
The TGI was 17.4 µM.

What about the GI50 (HOP-92 NSCLC) of the same compound?
Its GI50 is 13 µM.

What about the TGI (HOP-92 NSCLC) of the same compound?
Its TGI is 25.7 µM.

And the GI50 (TK-10 renal)?
The GI50 was 16.6 µM.

And the TGI (TK-10 renal)?
Its TGI is 30.5 µM.

And the GI50 (EKVX NSCLC)?
Its GI50 is 13.8 µM.

What about the TGI (EKVX NSCLC) of the same compound?
Its TGI is 27.7 µM.

And the GI50 (KM12 colon)?
Its GI50 is 15.8 µM.

And the TGI (KM12 colon)?
Its TGI is 29.8 µM.

What about the GI50 (K-562 leukemia) of the same compound?
Its GI50 is 14.2 µM.

And the TGI (K-562 leukemia)?
The TGI was 27.5 µM.

And the GI50 (MDA-MB-435 melanoma)?
Its GI50 is 16.8 µM.

And the TGI (MDA-MB-435 melanoma)?
Its TGI is 30.6 µM.

What about the GI50 (NCI/ADR-RES ovarian) of the same compound?
Its GI50 is 23.5 µM.

What about the TGI (NCI/ADR-RES ovarian) of the same compound?
The TGI was 62.6 µM.

What about the GI50 (BT-549 breast) of the same compound?
Its GI50 is 13.1 µM.

And the TGI (BT-549 breast)?
Its TGI is 25.9 µM.

And the GI50 (COLO 205 colon)?
Its GI50 is 16.1 µM.

What about the TGI (COLO 205 colon) of the same compound?
Its TGI is 29.7 µM.

And the GI50 (OVCAR-4 ovarian)?
The GI50 was 19.3 µM.

What about the TGI (OVCAR-4 ovarian) of the same compound?
The TGI was 35.7 µM.

What about the GI50 (A549 NSCLC) of the same compound?
The GI50 was 27.5 µM.

What about the TGI (A549 NSCLC) of the same compound?
Its TGI is 77.6 µM.

And the GI50 (SK-MEL-2 melanoma)?
Its GI50 is 15.8 µM.

What about the TGI (SK-MEL-2 melanoma) of the same compound?
Its TGI is 29.2 µM.

What about the GI50 (U251 glioblastoma) of the same compound?
Its GI50 is 15 µM.

What about the TGI (U251 glioblastoma) of the same compound?
Its TGI is 28.4 µM.

And the GI50 (SN12C renal)?
The GI50 was 15.9 µM.

What about the TGI (SN12C renal) of the same compound?
Its TGI is 30.5 µM.

And the GI50 (PC-3 prostate)?
The GI50 was 14.9 µM.

What about the TGI (PC-3 prostate) of the same compound?
The TGI was 28.6 µM.

What about the GI50 (OVCAR-3 ovarian) of the same compound?
Its GI50 is 14.5 µM.

What about the TGI (OVCAR-3 ovarian) of the same compound?
Its TGI is 27.7 µM.
